How the values were obtained:
OR5P3 = molecular target: T1, OR5P3 (Homo sapiens, UniProt Q8WZ94); assay: Screening for OR5P3 antagonist (luciferase assay, 2-heptanone as receptor-activating substance); format: cell-based; conditions: inhibition of OR5P3 response to 2-heptanone (1000 μM); test substance 0.3-100 μM; HEK293T cells expressing OR5P3
T1 construct: host or cells: HEK293T
T1 sequence (Q8WZ94 with tags, fused parts or gaps): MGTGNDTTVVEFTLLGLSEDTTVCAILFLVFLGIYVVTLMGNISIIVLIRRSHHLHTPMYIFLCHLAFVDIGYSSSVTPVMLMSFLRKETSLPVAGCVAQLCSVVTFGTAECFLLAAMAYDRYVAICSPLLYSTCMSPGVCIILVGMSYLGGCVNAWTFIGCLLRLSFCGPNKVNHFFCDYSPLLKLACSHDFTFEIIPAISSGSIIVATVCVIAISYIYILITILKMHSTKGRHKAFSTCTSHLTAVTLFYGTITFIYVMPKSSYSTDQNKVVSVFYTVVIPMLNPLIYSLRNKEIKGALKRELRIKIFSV
Method: The expression vector mixture was allowed to stand for 20 minutes in a laminar flow cabinet and then added to HEK293T cells inoculated in 10-cm petri dishes the day before (2.5 to 3.5×10^6 cells/10-cm petri dish). After incubation for 5 hours in an incubator maintained at 37° C. and 5% CO2, the HEK293T cells were inoculated into each well of a 96-well plate (BD) in a volume of 100 μl (2.5×10^6 cells/ml), and cultured overnight in an incubator maintained at 37° C. and 5% CO2. […] As a control, the same procedure was performed by using the empty vector Rho-pME18S instead of the expression vector for human olfactory receptor in the expression vector mixture to obtain culture of the HEK293T cells transfected with the empty vector Rho-pME18S (hereinafter also referred to as the “control cells”).
The medium was removed from the culture of HEK293T cells expressing OR5P3 obtained in the section <1-2> mentioned above, and 60 μl of a mixed solution of a test substance and 2-heptanone (containing 100 μM test substance and 1000 μM 2-heptanone) or 60 μl of a 2-heptanone solution (containing 1000 μM 2-heptanone) was added to obtain a reaction solution. The solutions were prepared by dissolving the substances in CD293 (Life Technologies, Inc.). The cells were incubated in a CO2 incubator at 37° C. for 3 hours so that the firefly luciferase gene was sufficiently expressed in the cells. The value of luminescence derived from firefly luciferase in the cells was measured and designated as “Luc value”. The value of luminescence derived from firefly luciferase was measured by using Dual-Go™ Luciferase Assay System (Promega) according to the operation manual of the product.
Receptor response inhibition ratio of the test substance was calculated as follows. The Luc value (Y) in the cells not stimulated with 2-heptanone was subtracted from the Luc value (X) in the cells stimulated with 2-heptanone alone. Similarly, the Luc value (Y) in the cells not stimulated with 2-heptanone was subtracted from the Luc value (Z) in the cells stimulated with a mixture of 2-heptanone and the test substance. The receptor response inhibition ratio of the test substance was calculated in accordance with the following equation using the increase in value of luminescence caused by stimulation with 2-heptanone alone (X Y) as the standard. The experiment was performed in duplicate, and an average value was obtained.
The concentration of the test substance was 0.3, 1, 3, 10, 30, or 100 μM. The response of the receptor to 2-heptanone (1000 μM) in the presence of each concentration of the test substance was measured and represented as the relative response intensity based on the response intensity of the receptor to 2-heptanone (1000 μM) observed in the absence of the test substance, which was taken as 100%.

[1] = Test Example 3: sensory evaluation of citral-derived degradation odor-masking effect; format: in vivo; conditions: score 0 to 10 (0 normal sample, 5 normal:degraded 1:1, 10 degraded sample); 100 ppm citral aqueous solution stored at 44° C. for two weeks; added ppm: decadienal 0.002, nonadienal 0.002, 2-methylbenzenethiol 0.165, S-(2-methyl-3-furyl) ethanethioate 0.120, piperine 6.667, nootkatone 10.000, sclareol 16.667; average of two experts
Method: A 100 ppm citral aqueous solution (stored under refrigeration after preparation) was used as a normal sample. This solution was stored at 44° C. for two weeks to generate a degraded odor derived from citral, and was used as a degraded sample. Evaluation samples were prepared by adding each of the compounds shown in Table 5 to the degraded sample at the concentrations shown in the same.
The citral-derived degradation odor intensity was scored as 0 to 10 on the basis of the following evaluation criteria. […] On the basis of the citral-derived degradation odor intensity, the citral-derived degradation odor-masking effect was evaluated.
• 0: Citral-derived degradation odor intensity of the normal sample • 5: Citral-derived degradation odor intensity of a mixture of the normal sample and degraded sample (normal sample:degraded sample=1:1) • 10: Citral-derived degradation odor intensity of the degraded sample

[2] = Test Example 4: sensory evaluation of lemon-derived degradation odor-masking effect (single compounds); format: in vivo; conditions: score 0 to 10 (0 normal sample, 5 normal:degraded 1:1, 10 degraded sample); lemon beverage stored at 44° C. for 2 weeks; added ppm: decadienal 0.002, nonadienal 0.002, 2-methylbenzenethiol 0.165, S-(2-methyl-3-furyl) ethanethioate 0.120, piperine 6.667, nootkatone 10.000, sclareol 16.667; average of 2 experts
Method: A commercially available lemon beverage (Chelate Lemon W Lemon (Pokka Sapporo), stored under refrigeration after purchased) was used as a normal sample. This lemon beverage was stored at 44° C. for 2 weeks to generate a lemon-derived degradation odor and was used as a degraded sample. Evaluation samples were prepared by adding each of the compounds shown in Table 6 to the degraded sample at the concentrations shown in the same.
The lemon-derived degradation odor intensity was scored as 0 to 10 on the basis of the following evaluation criteria. […] On the basis of the lemon-derived degradation odor intensity, the lemon-derived degradation odor-masking effect was evaluated.
• 0: Lemon-derived degradation odor intensity of the normal sample • 5: Lemon-derived degradation odor intensity of a mixture of the normal sample and degraded sample (normal sample:degraded sample=1:1) • 10: Lemon-derived degradation odor intensity of the degraded sample

olfactory receptor OR5P3 = molecular target: T2, olfactory receptor OR5P3 (Homo sapiens, UniProt Q8WZ94); assay: Luciferase reporter gene assay: response of human olfactory receptors to 4-methylacetophenone; format: cell-based
T2 construct: host or cells: HEK293T
T2 sequence (Q8WZ94 with tags, fused parts or gaps): T1 sequence (Q8WZ94 with tags, fused parts or gaps)
Source text: The genes for the 352 types of human olfactory receptors were purchased from TrueClone cDNA Clone Collection (OriGene). Fragments for subcloning of the 352 types of human olfactory receptor genes were amplified by PCR using primers designed on the basis of sequence information available in GenBank and the purchased human olfactory receptor genes as the templates. Each of the amplified fragments for subcloning of the genes was subcloned into the Rho-pME18S vector (K. Kajiya et al., Journal of Neuroscience. 15 Aug. 2001, 21 (16) 6018-6025) downstream of the Rho tag sequence using the EcoRI and XhoI sites to obtain 352 types of expression vectors for human olfactory receptors.
HEK293T cells expressing each of the 352 types of olfactory receptors were prepared by the following procedure. […]
The olfactory receptors expressed by HEK293T cells conjugate with Golf to activate adenylate cyclase, and thereby increase the amount of intracellular cAMP. In this example, the olfactory receptor response was measured by using a luciferase reporter gene assay, in which the increase in intracellular cAMP amount is monitored as an increase in firefly luciferase-derived luminescence. […] In addition, value of the luminescence derived from Renilla luciferase was used as an internal standard to correct errors caused by differences in gene transfer efficiency and cell number in each well. […]

| Compound | IC50 (OR5P3) | Evaluation score (citral-derived degradation odor intensity) [1] | Evaluation score (lemon-derived degradation odor intensity) [2] | further results |
| --- | --- | --- | --- | --- |
| CC(C)CC(O)Cc1ccccc1 (centres unmarked) | 67 µM |  |  |  |
| CCC=CC=CC=O [2,4-Heptadienal] | 78 µM |  |  |  |
| Cc1ccccc1S [2-Methylbenzenethiol] | 46 µM | 8 | 8 |  |
| CC=C(C=O)c1ccccc1 [2-Phenyl-2-butenal] | 65 µM |  |  |  |
| SCCc1ccccc1 [2-Phenylethanethiol] | 17 µM |  |  |  |
| SCc1cccs1 [2-Thiophenemethanethiol] | 39 µM |  |  |  |
| Sc1cccs1 [2-Thiophenethiol] | 76 µM |  |  |  |
| CC(=O)c1ccc(C)cc1 [4-methylacetophenone] |  |  |  | response of olfactory receptor OR5P3 to 4-methylacetophenone (olfactory receptor activity) (olfactory receptor OR5P3; 300 μM and 30 μM 4-methylacetophenone, 352 types of human olfactory receptors expressed in HEK293T cells, FIGS. 1 and 2): OR5P3 showed a response; 4-methylacetophenone concentration dependency of the response of OR5P3 (fold increase) (olfactory receptor OR5P3; HEK293T cells expressing OR5P3, n=3, FIG. 3): concentration-dependent manner |
| CC=Cc1ccc(OCc2ccccc2)c(OC)c1 [Benzyl isoeugenol] | 49 µM |  |  |  |
| S=C=NCc1ccccc1 [Benzyl isothiocyanate] | 19 µM |  |  |  |
| c1coc(CSCc2ccco2)c1 [Difurfuryl sulfide] | 39 µM |  |  |  |
| CCCCCCCCC(=O)NCc1ccc(O)c(OC)c1 [N-Vanillylnonanamide] | 2 µM |  |  |  |
| C=C(C)[C@@H]1CCC2=CC(=O)C[C@@H](C)[C@]2(C)C1 [Nootkatone] | 8.1 µM | 5.5 | 6 |  |
| O=C(/C=C/C=C/c1ccc2c(c1)OCO2)N1CCCCC1 [Piperine] |  | 6 | 8 |  |
| CC(=O)Sc1ccoc1C [S-(2-Methyl-3-furyl) ethanethioate] | 45 µM | 6 | 6 |  |
| C=C[C@](C)(O)CC[C@@H]1[C@@]2(C)CCCC(C)(C)[C@@H]2CC[C@@]1(C)O [Sclareol] |  | 5.5 | 6 |  |
| CCCCC/C=C/C=C/C=O [trans, trans-2,4-Decadienal] |  | 5 | 6 |  |
| CCCC/C=C/C=C/C=O [trans, trans-2,4-Nonadienal] |  | 7 | 7.5 |  |

From US20240385174A1, “METHOD FOR SCREENING SUBSTANCE THAT SUPPRESSES 4-METHYLACETOPHENONE ODOR, AND METHOD FOR SUPPRESSING 4-METHYL ACETOPHENONE ODOR” (AJINOMOTO CO., INC., priority 2022, published 2024)
